This passage reports IC50 results from patent US20150352108A1, “AMINO-PYRIMIDINE COMPOUNDS AS INHIBITORS OF TBK1 AND/OR IKK EPSILON” (Alzheimer's Institute of America, priority 2009, published 2015).

For the assay, the target named is T1, IKKε (Homo sapiens, UniProt Q14164).
T1 construct: His-tag; made in house; host or cells: Sf9 insect cells
T1 sequence (Q14164 1-716): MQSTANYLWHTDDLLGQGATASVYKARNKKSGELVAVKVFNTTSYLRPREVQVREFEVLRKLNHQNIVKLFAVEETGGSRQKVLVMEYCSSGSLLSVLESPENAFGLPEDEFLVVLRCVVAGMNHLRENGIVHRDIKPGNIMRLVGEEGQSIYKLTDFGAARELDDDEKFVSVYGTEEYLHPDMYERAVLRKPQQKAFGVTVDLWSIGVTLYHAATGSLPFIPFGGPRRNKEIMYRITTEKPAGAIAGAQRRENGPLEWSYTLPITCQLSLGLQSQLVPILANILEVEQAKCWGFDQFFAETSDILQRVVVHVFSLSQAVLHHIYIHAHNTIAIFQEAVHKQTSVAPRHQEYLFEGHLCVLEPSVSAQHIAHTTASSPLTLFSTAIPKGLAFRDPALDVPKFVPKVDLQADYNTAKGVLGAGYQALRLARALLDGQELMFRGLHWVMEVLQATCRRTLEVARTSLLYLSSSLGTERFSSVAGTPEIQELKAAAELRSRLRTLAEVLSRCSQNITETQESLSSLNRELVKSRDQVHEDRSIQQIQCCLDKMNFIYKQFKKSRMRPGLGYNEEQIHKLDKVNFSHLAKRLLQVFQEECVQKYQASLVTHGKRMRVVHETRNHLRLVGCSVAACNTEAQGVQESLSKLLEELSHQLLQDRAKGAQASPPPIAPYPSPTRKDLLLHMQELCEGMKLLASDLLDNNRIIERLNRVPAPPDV
Description: In-vitro IKKε kinase assay ([γ33]ATP filter-plate). It is filed as biochemical. The following applies: text bins; read-out: IC50 for inhibition of the kinase activity of IKKε. Here is the method:
IKKε enzyme was produced as a His-tag fusion in Sf9 cells and used at a final concentration of […]. TBK1 enzyme was produced as a His-tag fusion in Sf9 cells and used at a final concentration of 0.1 μg/ml. Kinase reactions were carried out in reaction buffer using myelin basic protein (Millipore, Ballerica, Mass.) or casein (Sigma, St. Louis, Mo.) as substrate at an ATP concentration equal to twice the Km,ATP value for each enzyme, corresponding to 32 μM ATP for IKKε and 60 μM ATP for TBK1, in the presence of 0.3 μCi [γ^33]ATP (PerkinElmer, Waltham, Mass.). Final enzyme concentrations were 0.1 or 0.015 μg/ml (IKKε) and 0.1 or 0.02 μg/ml (TBK1), representing “normal” and “sensitized” assay conditions respectively. Test compounds (or DMSO solvent as a control) were added prior to initiation of the reactions. Reactions were terminated after 30-45 minutes by adding 3% phosphoric acid. Terminated reactions were transferred to P-81 cellulose phosphate filterplates (Whatman, Inc., Piscataway, N.J.) and washed with 1% phosphoric acid on a vacuum apparatus. After air drying, scintillant (PerkinElmer, Waltham, Mass.) was added and the plates were read on a PerkinElmer TopCount NXT instrument. Counts were normalized to DMSO controls after background subtraction.
As to `N#Cc1cc(-c2ccnc(Nc3ccc(N4CCOCC4)cc3)n2)ccc1OCC1CN(C(=O)CO)C1` [Example 188, 2-{[1-(hydroxyacetyl)azetidin-3-yl]methoxy}-5-(2-{[4-(morpholin-4-yl)phenyl]amino}pyrimidin-4-yl)benzonitrile], the IC50 lay in the range of 5 to 50 nM. The result for `C[C@H](O)C(=O)N1CCC(Oc2ccc(-c3ccnc(Nc4ccc(N5CCOCC5)cc4)n3)cc2C#N)C1` (stereo partly drawn) [Example 192, 2-({1-[(2S)-2-hydroxypropanoyl]pyrrolidin-3-yl}oxy)-5-(2-{[4-(morpholin-4-yl)phenyl]amino}pyrimidin-4-yl)benzonitrile] reads 5 to 50 nM; that for `CC(=O)N1CCC(Oc2ccc(-c3ccnc(Nc4ccc(N5CCOCC5)cc4)n3)cc2C#N)C1` (stereo not drawn) [Example 195, 2-[(1-Acetylpyrrolidin-3-yl)oxy]-5-(2-{[4-(morpholin-4-yl)phenyl]amino}pyrimidin-4-yl)benzonitrile], 5 to 50 nM. The result for `CC(C)(C)C(=O)Nc1ccc(-c2ccnc(Nc3ccc(N4CCOCC4)cc3)n2)cc1C#N` [Example 196, N-[2-cyano-4-(2-{[4-(morpholin-4-yl)phenyl]amino}pyrimidin-4-yl)phenyl]-2,2-dimethylpropanamide] reads 5 to 50 nM; that for `N#Cc1cc(-c2ccnc(Nc3ccc(N4CCOCC4)cc3)n2)ccc1OCCNC(=O)CO` [Example 197, N-{2-[2-cyano-4-(2-{[4-(morpholin-4-yl)phenyl]amino}pyrimidin-4-yl)phenoxy]ethyl}-2-hydroxyacetamide], 5 to 50 nM. For `N#Cc1cccc(-c2ccnc(Nc3ccc4c(c3)CCC4)n2)c1` [Example 198, 3-[2-(2,3-Dihydro-1H-inden-5-ylamino)pyrimidin-4-yl]benzonitrile] the value was 50 to 500 nM.

Consider `COc1cc(Nc2nccc(-c3ccc(OC4CCN(C(=O)CO)C4)c(C#N)c3)n2)ccc1OCCOCCN` (stereo not drawn) [Example 199, 5-[2-({4-[2-(2-aminoethoxy)ethoxy]-3-methoxyphenyl}amino)pyrimidin-4-yl]-2-{[1-(hydroxyacetyl)pyrrolidin-3-yl]oxy}benzonitrile], for which the IC50 was 5 to 50 nM. The result for `N#Cc1cc(-c2ccnc(Nc3ccc(N4CCOCC4)cc3)n2)ccc1NCc1cccnc1` [Example 200, 5-(2-{[4-(Morpholin-4-yl)phenyl]amino}pyrimidin-4-yl)-2-[(pyridin-3-ylmethyl)amino] benzonitrile] reads 5 to 50 nM; that for `N#Cc1cc(-c2ccnc(Nc3ccc(N4CCOCC4)cc3)n2)ccc1NC(=O)c1cccnc1` [Example 204, N-[2-cyano-4-(2-{[4-(morpholin-4-yl)phenyl]amino}pyrimidin-4-yl)phenyl]pyridine-3-carboxamide], 50 to 500 nM.

As for `CN1CCN(C2CCN(c3ccc(-c4ccnc(Nc5ccc(N6CCOCC6)cc5)n4)cc3C#N)CC2)CC1` [Example 213, 2-[4-(4-Methylpiperazin-1-yl)piperidin-1-yl]-5-(2-{[4-(morpholin-4-yl)phenyl]amino}pyrimidin-4-yl)benzonitrile], the IC50 is 50 to 500 nM. For `CC(C)N1CCC(Oc2ccc(-c3ccnc(Nc4ccc(N5CCOCC5)cc4)n3)cc2C#N)CC1` [Example 227, 5-(2-{[4-(Morpholin-4-yl)phenyl]amino}pyrimidin-4-yl)-2-{[1-(propan-2-yl)piperidin-4-yl]oxy}benzonitrile] the value was 50 to 500 nM; for `CC(C)C[C@H](O)C(=O)N1CCC(Oc2ccc(-c3ccnc(Nc4ccc(N5CCOCC5)cc4)n3)cc2C#N)CC1` [Example 229, 2-({1-[(2S)-2-hydroxy-4-methylpentanoyl]piperidin-4-yl}oxy)-5-(2-{[4-(morpholin-4-yl)phenyl]amino}pyrimidin-4-yl)benzonitrile], 5 to 50 nM. For `N#Cc1cccc(-c2ccnc(Nc3ccc4c(c3)OCCO4)n2)c1` [Example 232, 3-[2-(2,3-Dihydro-1,4-benzodioxin-6-ylamino)pyrimidin-4-yl]benzonitrile] the value was 50 to 500 nM; for `N#Cc1cc(-c2ccnc(Nc3ccc(N4CCOCC4)cc3)n2)ccc1OC1CCN(CC(=O)N2CCOCC2)CC1` [Example 234, 2-({1-[2-(morpholin-4-yl)-2-oxoethyl]piperidin-4-yl}oxy)-5-(2-{[4-(morpholin-4-yl)phenyl]amino}pyrimidin-4-yl)benzonitrile], 50 to 500 nM; for `CN1CCN(CC(=O)N2CCC(Oc3ccc(-c4ccnc(Nc5ccc(N6CCOCC6)cc5)n4)cc3C#N)CC2)CC1` [Example 240, 2-({1-[(4-methylpiperazin-1-yl)acetyl]piperidin-4-yl}oxy)-5-(2-{[4-(morpholin-4-yl)phenyl]amino}pyrimidin-4-yl)benzonitrile], 50 to 500 nM. `CN1CCN(c2ccc(Nc3nccc(-c4cc(C#N)cc(OCc5ccccc5)c4)n3)cc2)CC1` [Example 244, 3-(Benzyloxy)-5-(2-{[4-(4-methylpiperazin-1-yl)phenyl]amino}pyrimidin-4-yl)benzonitrile]: the IC50 lay in the range of 50 to 500 nM. The result for `COc1ccc(-c2ccnc(Nc3cc(CN4CCC[C@H]4C(=O)N(C)C)c(OC)c(OC)c3)n2)cc1C#N` [Example 245, 1-(5-{[4-(3-Cyano-4-methoxyphenyl)pyrimidin-2-yl]amino}-2,3-dimethoxybenzyl)-N,N-dimethylprolinamide] reads 50 to 500 nM. The result for `N#Cc1cc(-c2ccnc(Nc3ccc(N4CCOCC4)cc3)n2)ccc1OC1CCN(C(=O)C(F)(F)F)CC1` [Example 247, 5-(2-{[4-(Morpholin-4-yl)phenyl]amino}pyrimidin-4-yl)-2-{[1-(trifluoroacetyl)piperidin-4-yl]oxy}benzonitrile] reads 5 to 50 nM; that for `C[C@H](O)C(=O)N1CC(Oc2ccc(-c3ccnc(Nc4ccc(N5CCOCC5)cc4)n3)cc2C#N)C1` [Example 249, 2-({1-[(2S)-2-hydroxypropanoyl]azetidin-3-yl}oxy)-5-(2-{[4-(morpholin-4-yl)phenyl]amino}pyrimidin-4-yl)benzonitrile], 50 to 500 nM. For `C[C@H](O)C(=O)NCCOc1ccc(-c2ccnc(Nc3ccc(N4CCOCC4)cc3)n2)cc1C#N` [Example 250, (2S)-N-{2-[2-cyano-4-(2-{[4-(morpholin-4-yl)phenyl]amino}pyrimidin-4-yl)phenoxy]ethyl}-2-hydroxypropanamide] the value was 50 to 500 nM; for `CC(C)(N)C(=O)N1CCC(COc2ccc(-c3ccnc(Nc4ccc(N5CCOCC5)cc4)n3)cc2C#N)CC1` [Example 255, 2-{[1-(2-methylalanyl)piperidin-4-yl]methoxy}-5-(2-{[4-(morpholin-4-yl)phenyl]amino}pyrimidin-4-yl)benzonitrile], 50 to 500 nM; for `CC(Oc1ccc(-c2ccnc(Nc3ccc(N4CCOCC4)cc3)n2)cc1C#N)C(=O)O` (stereo not drawn) [Example 265, 2-[2-Cyano-4-(2-{[4-(morpholin-4-yl)phenyl]amino}pyrimidin-4-yl)phenoxy]propanoic acid], 50 to 500 nM. Turning to `CC(C)C(=O)Nc1ccc(-c2ccnc(Nc3ccc(N4CCOCC4)cc3)n2)cc1C#N` [Example 267, N-[2-Cyano-4-(2-{[4-(morpholin-4-yl)phenyl]amino}pyrimidin-4-yl)phenyl]-2-methylpropanamide], the IC50 was 5 to 50 nM.

On to `CC(=O)Nc1cccc(Nc2nccc(-c3cccc(C#N)c3)n2)c1` [Example 277, N-(3-{[4-(3-Cyanophenyl)pyrimidin-2-yl]amino}phenyl) acetamide], for which the IC50 is 50 to 500 nM. For `COc1cc(NC(C)=O)cc(Nc2nccc(-c3ccc(OC)c(C#N)c3)n2)c1` [Example 279, N-(3-{[4-(3-Cyano-4-methoxyphenyl)pyrimidin-2-yl]amino}-5-methoxyphenyl) acetamide] the value was 5 to 50 nM; for `CC(C)(C)c1ccc(Nc2nccc(-c3cccc(C#N)c3)n2)cc1` [Example 282, 3-{2-[(4-tert-Butylphenyl)amino]pyrimidin-4-yl}benzonitrile], 50 to 500 nM; for `COc1ccc(-c2ccnc(Nc3ccc(OC)c(OC4CCN(C)CC4)c3)n2)cc1C#N` [Example 289, 2-Methoxy-5-[2-({4-methoxy-3-[(1-methylpiperidin-4-yl)oxy]phenyl}amino)pyrimidin-4-yl]benzonitrile], 50 to 500 nM.
